System: CD4 T cells
Assay: CD4 T cell activation and differentiation in vitro with Dkk-1 or Wnt3a
Assay type: cell-based, mice
Details: naïve CD4 T cells, Wnt3a 20% v/v, 96 hours
Description: FIG. 5, comprising FIG. 5A through FIG. 5E, depicts results of experiments showing Dkk-1 induces TH2 cell polarization. FIG. 5A depicts lungs harvested for immunohistochemistry of CD3 (dark brown), CD41 (blue) and isotype control antibodies of lungs from Dkk-1^d/d mice and their wildtype littermate controls challenged with HDM extract allergen. Orange arrowheads in the images indicate co-localized CD3 T cells with CD41^+ platelets. FIG. 5B depicts ELISA analysis of Dkk-1 from plasma samples from Dkk-1^d/d mice (n=5) collected 24 hours after challenge with 50 μg HDM. FIG. 5C depicts ELISA analysis of splenic CD4 T cells from 6-8 week-old C57BL/6 mice were activated with anti-CD3 and anti-CD28 antibodies (Act) with or without Dkk-1 (30 ng/ml unless indicated) for 4 days. FIG. 5D depicts flow cytometry analysis of splenic CD4 T cells from 6-8 week-old C57BL/6 mice were activated with anti-CD3 and anti-CD28 antibodies (Act) with or without Dkk-1 (30 ng/ml unless indicated) for 4 days. FIG. 5E depicts ELISA analysis of naïve CD4 T cells stimulated anti-CD3 and anti-CD28 antibodies for 96 hr with or without Dkk-1.
FIG. 6, comprising FIG. 6A through FIG. 6E, depicts results of experiments showing Dkk-1 induces TH2 cytokines in various T cell differentiation conditions. FIG. 6A depicts flow cytometry and ELISA analysis of naïve CD4 T cells were stimulated under TH1 polarization conditions for 96 hours with or without Dkk-1. FIG. 6B depicts flow cytometry and ELISA analysis of naïve CD4 T cells were stimulated under TH2 polarization conditions for 96 hours with or without Dkk-1. FIG. 6C depicts flow cytometry analysis of Foxp3, IL-17A, and IL-10 expression in splenic naïve CD4 T cells isolated and differentiated into iTreg for 5 days with 100 U/ml IL-2 and 1.5 ng/ml TGF-β with or without 30 ng/ml and 3 ng/ml of Dkk-1 treated during the culture. FIG. 6D depicts Gata-3 expression levels of splenic naïve CD4 T cells from 8 week-old C57BL/6 mice treated with Dkk-1 with varying doses of Dkk-1 (50, 30, 7.5 ng/ml) or Wnt3a (20% v/v) for 96 hours in the presence of anti-CD3 and anti-CD28 antibody stimulation. FIG. 6E depicts qPCR results of Tcf7 and Lef1 mRNA harvested from splenic naïve CD4 T cells from 8 week-old C57BL/6 mice stimulated with or without Dkk-1 (30 ng/ml) for 96 hours. All results were statistically non-significant. All experiments are a representative of two to three independent experiments. Student's t-test or one way-ANOVA analysis with Bonferonni's post-hoc test were performed. Small horizontal lines and error bars indicate the mean (±s.e.m.). ***, p<0.0001, **, p<0.005, *, p<0.05.
FIG. 8, comprising FIG. 8A through FIG. 8G, depicts results of experiments showing Dkk-1 induces IL-10 in CD4 T cells via SGK-1 and p38 MAPK. FIG. 8A depicts ELISA analysis of naïve CD4 T cell differentiated into TH2 cells with or without Dkk-1 (30 ng/ml), SGK-1 inhibitor (2 μM) or p38 inhibitor (10 μM) for 96 hours. FIG. 8B depicts flow cytometry analysis of human naïve CD4 T cells (CD4^+CD25^−CD45RA^+) transduced with SGK-1 shRNA and selected with puromycin (0.5 μg/ml) for 48 hours. The selected cells were stimulated with anti-CD3 mAb (OKT3) and anti-CD28 mAb with or without Dkk-1 for 96 hr. For the last 5 hr of culture, stimulation cocktail (PMA/Ionomycin/Brefeldin A/Monensin) was added. FIG. 8C depicts intracellular staining with antibodies recognizing phospho-S6 kinase of splenic CD4^+CD25^− cells from 6 week-old C57BL/6 mice were isolated and activated with anti-CD3 and anti-CD28 mAb (2 μg/ml) with or without Dkk-1 (25 ng/ml) for indicated time points. FIG. 8D depicts intracellular staining with antibodies recognizing phospho-4E-BP1 of splenic CD4^+CD25^− cells from 6 week-old C57BL/6 mice were isolated and activated with anti-CD3 and anti-CD28 mAb (2 μg/ml) with or without Dkk-1 (25 ng/ml) for indicated time points. […]

In the case of Wnt3a, the Gata-3 expression is reported as “induced”.

Source: patent US11135223B2, “Compositions and methods for inhibiting Dkk-1” (YALE UNIVERSITY, priority 2016, dated 2021)
